Eight molecules from ChEMBL document CHEMBL5634141 (Eur J Med Chem, 2023) can be followed below.

Activity calls are given as the source filed them. No cut-off for these calls is given here.

The test system of data set [1] is MIA PaCa-2. The data set can be described thus: Antiproliferative activity against human MIA PaCa-2 cells expressing KRAS G12C mutant assessed as inhibition of cell growth incubated for 72 hrs by CCK-8 assay. Type of data set: functional, cell-based. As to conditions: MIA PaCa-2, 72 h.
Data set [2] is described as follows: Cytotoxicity against HEK293T cells assessed as inhibition of cell growth incubated for 72 hrs by CCK-8 assay. Type of data set: toxicity, cell-based, HEK-293T. As to conditions: human.
Data set [3] concerns NCI-H358. The data set can be described thus: Antiproliferative activity against human NCI-H358 cells expressing KRAS G12C mutant assessed as inhibition of cell growth incubated for 72 hrs by CCK-8 assay. Type of data set: functional, cell-based. To be noted: NCI-H358, 72 h.
A further data set deals with HepG2. Nature of the data set: Antiproliferative activity against human HepG2 cells expressing KRAS assessed as inhibition of cell growth incubated for 72 hrs by CCK-8 assay. Type of data set: functional, cell-based. To be noted: HepG2, 72 h.
The test system of the next data set is ASPC1. The data set can be described thus: Antiproliferative activity against human ASPC1 cells expressing KRAS G12D mutant assessed as inhibition of cell growth incubated for 72 hrs by CCK-8 assay. The data set is classed as functional, cell-based. As to conditions: ASPC1, 72 h.
Data set [4] concerns MIA PaCa-2. Nature of the data set: Antiproliferative activity against human MIA PaCa-2 cells expressing KRAS G12C mutant assessed as relative cell viability at 50 nM incubated for 72 hrs by CCK-8 assay. The data set is classed as functional. As to conditions: read-out: Activity.
In data set [5] the test system is SW837. Nature of the data set: Antiproliferative activity against human SW837 cells expressing KRAS G12C mutant assessed as relative cell viability at 50 nM incubated for 72 hrs by CCK-8 assay. The data set is classed as functional. As to conditions: read-out: Activity.
For data set [6], the system named is Calu-1. Nature of the data set: Antiproliferative activity against human Calu-1 cells expressing KRAS G12C mutant assessed as relative cell viability at 50 nM incubated for 72 hrs by CCK-8 assay. Type of data set: functional. As to conditions: read-out: Activity.
Data set [7] deals with NCI-H23. The data set can be described thus: Antiproliferative activity against human NCI-H23 cells expressing KRAS G12C mutant assessed as relative cell viability at 50 nM incubated for 72 hrs by CCK-8 assay. The data set is classed as functional. To be noted: read-out: Activity.
Data set [8] concerns NCI-H358. The data set can be described thus: Antiproliferative activity against human NCI-H358 cells expressing KRAS G12C mutant assessed as relative cell viability at 50 nM incubated for 72 hrs by CCK-8 assay. As to conditions: read-out: Activity. Type of data set: functional.
In data set [9] the test system is MIA PaCa-2. Nature of the data set: Antiproliferative activity against human MIA PaCa-2 cells expressing KRAS G12C mutant assessed as relative cell viability at 100 nM incubated for 72 hrs by CCK-8 assay. To be noted: read-out: Activity. The data set is classed as functional.
Data set [10] relates to NCI-H358. Nature of the data set: Antiproliferative activity against human NCI-H358 cells expressing KRAS G12C mutant assessed as relative cell viability at 100 nM incubated for 72 hrs by CCK-8 assay. Type of data set: functional. As to conditions: read-out: Activity.
Data set [11] relates to SW837. Nature of the data set: Antiproliferative activity against human SW837 cells expressing KRAS G12C mutant assessed as relative cell viability at 100 nM incubated for 72 hrs by CCK-8 assay. The data set is classed as functional. As to conditions: read-out: Activity.
The subject of data set [12] is Calu-1. The data set can be described thus: Antiproliferative activity against human Calu-1 cells expressing KRAS G12C mutant assessed as relative cell viability at 100 nM incubated for 72 hrs by CCK-8 assay. Type of data set: functional. To be noted: read-out: Activity.
Data set [13] relates to NCI-H23. Nature of the data set: Antiproliferative activity against human NCI-H23 cells expressing KRAS G12C mutant assessed as relative cell viability at 100 nM incubated for 72 hrs by CCK-8 assay. Type of data set: functional. To be noted: read-out: Activity.
Data set [14] can be described thus: Cmax in ICR mouse at 30 mg/kg, ip measured after 24 hrs by LC-MS/MS analysis. Type of data set: ADME, organism-based. To be noted: in vivo.
The nature of data set [15]: AUC (0 to t) in ICR mouse at 30 mg/kg, ip measured after 24 hrs by LC-MS/MS analysis. Type of data set: ADME, organism-based. As to conditions: in vivo.
Data set [16] in a line: Volume of distribution at steady state in ICR mouse at 2 mg/kg, iv measured after 24 hrs by LC-MS/MS analysis. To be noted: in vivo. The data set is classed as ADME, organism-based.
The nature of data set [17]: Inhibition of PI3K-AKT-mTOR pathway in human NCI-H358 cells assessed as decrease in […] phosphorylation at 100 nM incubated for 6 to 8 days by Western blot analysis. As to conditions: time 6-8 day. The data set is classed as cell-based.
The nature of data set [18]: Tmax in ICR mouse at 30 mg/kg, ip measured after 24 hrs by LC-MS/MS analysis. To be noted: in vivo. The data set is classed as ADME, organism-based.
The subject of data set [19] is MIA PaCa-2. The data set can be described thus: Inhibition of RAF-MEK-ERK pathway in human MIA PaCa-2 cells assessed as decrease in ERK phosphorylation at 100 nM incubated for 6 to 8 days by Western blot analysis. Type of data set: cell-based. As to conditions: time 6-8 day.
The nature of data set [20]: Half life in ICR mouse at 2 mg/kg, iv measured after 24 hrs by LC-MS/MS analysis. Type of data set: ADME, organism-based. To be noted: in vivo.
Data set [21] deals with NCI-H358. The data set can be described thus: Inhibition of RAF-MEK-ERK pathway in human NCI-H358 cells assessed as decrease in ERK phosphorylation at 100 nM incubated for 6 to 8 days by Western blot analysis. The data set is classed as cell-based. To be noted: time 6-8 day.
Data set [22] in a line: AUC (0 to infinity) in ICR mouse at 2 mg/kg, iv measured after 24 hrs by LC-MS/MS analysis. The data set is classed as ADME, organism-based. As to conditions: in vivo.
A short description of data set [23]: Clearance in ICR mouse at 2 mg/kg, iv measured after 24 hrs by LC-MS/MS analysis. The data set is classed as ADME, organism-based. As to conditions: in vivo.
The nature of data set [24]: Cmax in ICR mouse at 2 mg/kg, iv measured after 24 hrs by LC-MS/MS analysis. The data set is classed as ADME, organism-based. As to conditions: in vivo.
Data set [25] is described as follows: Half life in ICR mouse at 30 mg/kg, ip measured after 24 hrs by LC-MS/MS analysis. Type of data set: ADME, organism-based. To be noted: in vivo.
The nature of data set [26]: Inhibition of PI3K-AKT-mTOR pathway in human MIA PaCa-2 cells assessed as decrease in […] phosphorylation at 100 nM incubated for 6 to 8 days by Western blot analysis. As to conditions: time 6-8 day. Type of data set: cell-based.
A short description of data set [27]: AUC (0 to t) in ICR mouse at 2 mg/kg, iv measured after 24 hrs by LC-MS/MS analysis. The data set is classed as ADME, organism-based. To be noted: in vivo.
Data set [28] in a line: AUC (0 to infinity) in ICR mouse at 30 mg/kg, ip measured after 24 hrs by LC-MS/MS analysis. Type of data set: ADME, organism-based. To be noted: in vivo.

On to `C=CC(=O)N1CCN(c2nc(=O)n(-c3c(C)ccnc3C(C)C)c3nc(-c4c(F)cccc4OCc4cn(CCCCC(=O)N[C@H](C(=O)N5C[C@H](O)C[C@H]5C(=O)NCc5ccc(-c6scnc6C)cc5)C(C)(C)C)nn4)c(F)cc23)[C@@H](C)C1`, for which the concentration for half-maximal inhibition (IC50) with MIA PaCa-2 [1] is 0.66 µM; in the data set with NCI-H358 [3], 0.463 µM; in the data set on HepG2, over 10 µM; in the data set with ASPC1, over 10 µM. In addition, the IC50 at 72 h in [2] was over 10 µM.
As for `C=CC(=O)N1CCN(c2nc(=O)n(-c3c(C)ccnc3C(C)C)c3nc(-c4c(F)cccc4OCCN4CCN(CCCC(=O)N[C@H](C(=O)N5C[C@H](O)C[C@H]5C(=O)NCc5ccc(-c6scnc6C)cc5)C(C)(C)C)CC4)c(F)cc23)[C@@H](C)C1`, the IC50 in the data set on MIA PaCa-2 [1] is 0.337 µM; in the data set with NCI-H358 [3], 0.233 µM; with HepG2, over 10 µM; in the data set with ASPC1, over 10 µM. The IC50 at 72 h in [2] is over 10 µM.
As to `Cn1c(=O)n(-c2ccc(C(C)(C)C#N)cc2)c2c3cc(-c4cnc5ccccc5c4)ccc3ncc21` [DACTOLISIB], the viability at 0.05 µM in the data set with MIA PaCa-2 [4] is 0.7%; in the data set with SW837 [5] it was 0.82%; in the data set with Calu-1 [6], 0.88%; in the data set on NCI-H23 [7], 0.79%; with NCI-H358 [8], 0.77%.
Take `CCN1CCN(c2ccc(Nc3cc(N(C)C(=O)Nc4c(Cl)c(OC)cc(OC)c4Cl)ncn3)cc2)CC1` [INFIGRATINIB]: the viability at 0.1 µM in the data set with MIA PaCa-2 [9] came out at 0.84%; with NCI-H358 [10], 0.88%; in the data set with SW837 [11], 0.85%; in the data set with Calu-1 [12] it was 0.86%; in the data set with NCI-H23 [13], 0.89%.
Turning to `C=CC(=O)N1CCN(c2nc(=O)n(-c3c(C)ccnc3C(C)C)c3nc(-c4c(F)cccc4OCc4cn(CCCC(=O)N[C@H](C(=O)N5C[C@H](O)C[C@H]5C(=O)NCc5ccc(-c6scnc6C)cc5)C(C)(C)C)nn4)c(F)cc23)[C@@H](C)C1`, the half-inhibitory concentration (IC50) with MIA PaCa-2 [1] is 0.491 µM; in the data set with NCI-H358 [3], 0.368 µM; in the data set on HepG2, over 10 µM; in the data set on ASPC1, over 10 µM. Besides, the IC50 at 72 h in data set [2] is over 10 µM.
Consider `C=CC(=O)N1CCN(c2nc(=O)n(-c3c(C)ccnc3C(C)C)c3nc(-c4c(O)cccc4F)c(F)cc23)[C@@H](C)C1` [SOTORASIB], for which the Cmax in data set [14] is 9840 ng/mL; in data set [24] it was 863 ng/mL. Also, the half-inhibitory concentration (IC50) in the data set with MIA PaCa-2 [1] is 0.018 µM; in the data set on NCI-H358 [3], 0.012 µM; in the data set on HepG2, over 10 µM; with ASPC1 it was over 10 µM. For the same molecule, the AUC(0-t) at 24 h came out at 9440 ng·h/mL in data set [15] and 311 ng·h/mL in [27]. Moreover, in data set [2], the half-maximal inhibitory concentration (IC50) at 72 h is over 10 µM. The Vdss in data set [16] is 1.62 L/kg. The inhibition entry (in [17]; with MIA PaCa-2 [19]; in the data set on NCI-H358 [21]; in data set [26]) was “inactive” each time. For the same molecule, the Tmax in [18] came to 15 min. Also, the t1/2 in data set [20] is 15.1 min. The same molecule gave an AUC in data set [22] of 312 ng·h/mL. For the same molecule, the clearance in data set [23] was 110 mL/min/kg. Further, the half-life in data set [25] is 238 min. The molecule also registered a total exposure AUC(0-inf) in [28] of 9450 ng·h/mL.
As for `C=CC(=O)N1CCN(c2nc(=O)n(-c3c(C)ccnc3C(C)C)c3nc(-c4c(F)cccc4OCCN4CCN(CCC(=O)N[C@H](C(=O)N5C[C@H](O)C[C@H]5C(=O)NCc5ccc(-c6scnc6C)cc5)C(C)(C)C)CC4)c(F)cc23)[C@@H](C)C1`, the IC50 in the data set on MIA PaCa-2 [1] was 0.172 µM; in the data set on NCI-H358 [3], 0.253 µM; in the data set with HepG2, over 10 µM; in the data set with ASPC1 it was over 10 µM. Further, in [2], the IC50 at 72 h was over 10 µM.
Consider `C=CC(=O)N1CCN(c2nc(=O)n(-c3c(C)ccnc3C(C)C)c3nc(-c4c(F)cccc4OCc4cn(CC(=O)N[C@H](C(=O)N5C[C@H](O)C[C@H]5C(=O)NCc5ccc(-c6scnc6C)cc5)C(C)(C)C)nn4)c(F)cc23)[C@@H](C)C1`, for which the IC50 is 0.529 µM in the data set with MIA PaCa-2 [1], 0.562 µM with NCI-H358 [3], over 10 µM in the data set on HepG2 and over 10 µM in the data set on ASPC1. Further, the IC50 at 72 h in data set [2] was over 10 µM.
